Read-outs that look alike come from different tables or passages of the source.
Assays:
[1] = test system: adults smoking 10+ cigarettes daily; settings: for Serious AEs: ORCA-1, pooled cytisinicline arms (n = 203)
Text: Table 13 summarizes the treatment emergent adverse events (TEAEs).

[2] = target: neuronal alpha4, beta2 (α4β2) receptors (Homo sapiens, UniProt P17787+P43681); settings: background studies; cited from earlier work
[3] = 1.5 mg downward titration (n = 51)
[4] = 3.0 mg downward titration (n = 50)
[5] = pooled cytisinicline arms (n = 203)

Sequence of neuronal alpha4, beta2 (α4β2) receptors (P43681 29-627 limits assumed): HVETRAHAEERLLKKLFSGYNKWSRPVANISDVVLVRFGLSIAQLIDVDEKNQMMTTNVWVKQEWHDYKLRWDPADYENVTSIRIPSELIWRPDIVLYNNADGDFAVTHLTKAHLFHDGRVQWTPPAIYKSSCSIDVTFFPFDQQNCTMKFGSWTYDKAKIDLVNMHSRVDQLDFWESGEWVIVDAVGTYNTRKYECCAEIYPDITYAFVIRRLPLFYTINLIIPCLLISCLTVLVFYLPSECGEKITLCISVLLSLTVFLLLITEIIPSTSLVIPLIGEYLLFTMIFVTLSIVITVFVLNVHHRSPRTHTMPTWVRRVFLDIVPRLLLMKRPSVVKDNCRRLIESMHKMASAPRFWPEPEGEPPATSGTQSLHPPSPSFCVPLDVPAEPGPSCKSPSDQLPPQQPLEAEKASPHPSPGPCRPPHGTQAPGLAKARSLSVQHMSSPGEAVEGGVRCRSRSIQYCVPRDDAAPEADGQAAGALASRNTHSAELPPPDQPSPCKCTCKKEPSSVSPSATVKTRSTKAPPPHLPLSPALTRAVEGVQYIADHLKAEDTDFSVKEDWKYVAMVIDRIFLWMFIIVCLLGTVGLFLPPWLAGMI
Sequence of neuronal alpha4, beta2 (α4β2) receptors (P17787 26-502): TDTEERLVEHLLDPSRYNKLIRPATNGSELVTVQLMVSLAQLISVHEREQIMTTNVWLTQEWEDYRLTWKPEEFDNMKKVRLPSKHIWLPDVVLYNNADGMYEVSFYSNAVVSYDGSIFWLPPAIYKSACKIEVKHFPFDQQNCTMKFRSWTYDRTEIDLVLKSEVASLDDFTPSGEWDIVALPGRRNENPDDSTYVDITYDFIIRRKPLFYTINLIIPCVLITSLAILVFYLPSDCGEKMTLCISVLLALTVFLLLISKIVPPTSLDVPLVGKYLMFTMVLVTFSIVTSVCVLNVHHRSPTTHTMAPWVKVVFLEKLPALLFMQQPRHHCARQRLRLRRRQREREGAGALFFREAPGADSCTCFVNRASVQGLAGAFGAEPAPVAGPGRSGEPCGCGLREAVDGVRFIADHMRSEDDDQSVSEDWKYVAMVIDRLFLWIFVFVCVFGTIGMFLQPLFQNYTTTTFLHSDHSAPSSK

O=c1cccc2n1C[C@@H]1CNC[C@H]2C1 [cytisine, (−)-Cytisine]
TEAE: Abnormal dreams ([1]; 1.5 mg TID (n = 52)): 4 (8%) n (%)
TEAE: At least 1 AE ([1]; 1.5 mg TID (n = 52)): 20 (39%) n (%)
TEAE: Constipation ([1]; 1.5 mg TID (n = 52)): 1 (2%) n (%)
TEAE: Fatigue ([1]; 1.5 mg TID (n = 52)): 3 (6%) n (%)
TEAE: Headache ([1]; 1.5 mg TID (n = 52)): 6 (12%) n (%)
TEAE: Insomnia ([1]; 1.5 mg TID (n = 52)): 4 (8%) n (%)
TEAE: Nausea ([1]; 1.5 mg TID (n = 52)): 1 (2%) n (%)
TEAE: URTI ([1]; 1.5 mg TID (n = 52)): 5 (10%) n (%)
TEAE: Abnormal dreams [1, 3]: 4 (8%) n (%)
TEAE: At least 1 AE [1, 3]: 29 (57%) n (%)
TEAE: Fatigue [1, 3]: 1 (2%) n (%)
TEAE: Headache [1, 3]: 1 (2%) n (%)
TEAE: Insomnia [1, 3]: 3 (6%) n (%)
TEAE: Nausea [1, 3]: 5 (10%) n (%)
TEAE: URTI [1, 3]: 3 (6%) n (%)
TEAE: Abnormal dreams ([1]; 3.0 mg TID (n = 50)): 3 (6%) n (%)
TEAE: At least 1 AE ([1]; 3.0 mg TID (n = 50)): 21 (42%) n (%)
TEAE: Constipation ([1]; 3.0 mg TID (n = 50)): 3 (6%) n (%)
TEAE: Fatigue ([1]; 3.0 mg TID (n = 50)): 1 (2%) n (%)
TEAE: Headache ([1]; 3.0 mg TID (n = 50)): 2 (4%) n (%)
TEAE: Insomnia ([1]; 3.0 mg TID (n = 50)): 3 (6%) n (%)
TEAE: Nausea ([1]; 3.0 mg TID (n = 50)): 3 (6%) n (%)
TEAE: URTI ([1]; 3.0 mg TID (n = 50)): 3 (6%) n (%)
TEAE: Abnormal dreams [1, 4]: 7 (14%) n (%)
TEAE: At least 1 AE [1, 4]: 23 (46%) n (%)
TEAE: Fatigue [1, 4]: 2 (4%) n (%)
TEAE: Headache [1, 4]: 1 (2%) n (%)
TEAE: Insomnia [1, 4]: 4 (8%) n (%)
TEAE: Nausea [1, 4]: 3 (6%) n (%)
TEAE: URTI [1, 4]: 2 (4%) n (%)
Serious AEs [1]: no serious or severe adverse events
Serious AEs ([1]; listed as Cytisinicline): 0
TEAE: Abnormal dreams [1, 5]: 18 (9%) n (%)
TEAE: At least 1 AE [1, 5]: 93 (46%) n (%)
TEAE: Constipation [1, 5]: 4 (2%) n (%)
TEAE: Fatigue [1, 5]: 7 (3%) n (%)
TEAE: Headache [1, 5]: 10 (5%) n (%)
TEAE: Insomnia [1, 5]: 14 (7%) n (%)
TEAE: Nausea [1, 5]: 12 (6%) n (%)
TEAE: URTI [1, 5]: 13 (6%) n (%)
Binding to α4β2 receptors [2]: bind strongly and preferentially

— US20260158011A1 (Achieve Life Sciences, Inc., priority 2023, published 2026)
